Measured values published in patent US12673951B2, “Substituted pyrazoloquinazolinone compounds and application thereof” (IMPACT THERAPEUTICS (SHANGHAI), INC, priority 2019, dated 2026).
Like-named read-outs stand apart in the source and are kept apart here.

Experiments:
ATM enzyme = biological target: T1, ATM enzyme (Homo sapiens, UniProt Q13315); assay: ATM kinase assay (HTRF); format: biochemical; details: for inhibition at 1 µM / inhibition at 10 µM / inhibition at 100 µM / inhibition at 0.1 µM: 0.5 h, read-out: Inh (%) ATM kinase inhibition rate; for inhibition at 0.1 µM: C 0.1 μm
T1 construct: purchased Eurofins 14-933
Experimental: The mixture was centrifuged at 1000 rpm for 1 minute, and reacted at room temperature away from light for 30 minutes. Then 5 μL of EDTA stop solution (250 mM) was added to stop the reaction. After 5 μL of detection mixture (Anti-phospho-p53 (ser15)-K (Cisbio, #61P08KAE, 0.084 ng/μL) and Anti-GST-d2 (Cisbio, #61GSTDLA, 5.00 ng/μL)) was finally added to each well, then incubate the plate overnight at room temperature.
Relative fluorescence ratio was calculated: Ratio665 nm/615 nm-Ratiobackground, and inhibition rate %=(1−(relative fluorescence ratio of test compound well−relative fluorescence ratio of positive control well)/(relative fluorescence ratio of negative control well−relative fluorescence ratio of positive control well))×100 was calculated. Data were analyzed using GraphPad Prism6.0, and fitted using the curve equation: Y=Bottom+(Top−Bottom)/(1+10^((Log IC50−X)×HillSlope)) and IC50 values were calculated.

[1] = tested on: human colon cancer cell SW620; assay: MTT assay, growth of SW620 cells, compounds combined with CPT-11; format: cell-based; details: read-out: IC50, growth of SW620 combined with CPT-11
Experimental: The cells were seeded into 96-well cell culture plate with appropriate cell density and incubated overnight in a 37° C. 5% CO2 incubator. […] 5 μL of each concentration was added to 120 μL of medium (25 times diluted) and mixed by shaking. […] After removing the original solution, 100 μL of fresh serum-free DMEM medium containing MTT (0.5 mg/mL) was added to each well, the culture was continued. […] GraphPad Prism 6.0 was used to analyze the data. The inhibitory activity of compounds on cell proliferation was plotted based on cell viability and compound concentration.

[2] = tested on: human breast cancer cell MDA-MB-468; assay: MTT assay, growth of MDA-MB-468 cells; format: cell-based; details: read-out: IC50, growth of MDA-MB-468
Experimental: The cells were seeded into 96-well cell culture plate with appropriate cell density and incubated overnight in a 37° C. 5% CO2 incubator. […] 5 μL of each concentration was added to 120 μL of medium (25 times diluted) and mixed by shaking. The overnight cells were taken and the culture medium was removed, 195 μL of fresh medium was added to each well, and 5 μL of diluted medium containing the corresponding concentration of the tested sample was added, respectively, and the culture plate was then placed in the 5% CO2 cell culture incubator at 37° C. for 7 days (On the fourth day, the medium containing drugs was removed and fresh medium containing drugs was added for continuous cultivation.). After removing the original solution, 100 μL of fresh serum-free DMEM medium containing MTT (0.5 mg/mL) was added to each well, the culture was continued. […] GraphPad Prism 6.0 was used to analyze the data. The inhibitory activity of compounds on cell proliferation was plotted based on cell viability and compound concentration.

[3] = Homo sapiens, SW-620, 120 h, SW620 cells, medium containing 205 nM CPT-11, 5 days, MTT
[4] = Homo sapiens, 168 h, MDA-MB-468 cells, 7 days, MTT
[5] = Homo sapiens, MDA-MB-468, 168 h

T1 sequence (Q13315 whole entry): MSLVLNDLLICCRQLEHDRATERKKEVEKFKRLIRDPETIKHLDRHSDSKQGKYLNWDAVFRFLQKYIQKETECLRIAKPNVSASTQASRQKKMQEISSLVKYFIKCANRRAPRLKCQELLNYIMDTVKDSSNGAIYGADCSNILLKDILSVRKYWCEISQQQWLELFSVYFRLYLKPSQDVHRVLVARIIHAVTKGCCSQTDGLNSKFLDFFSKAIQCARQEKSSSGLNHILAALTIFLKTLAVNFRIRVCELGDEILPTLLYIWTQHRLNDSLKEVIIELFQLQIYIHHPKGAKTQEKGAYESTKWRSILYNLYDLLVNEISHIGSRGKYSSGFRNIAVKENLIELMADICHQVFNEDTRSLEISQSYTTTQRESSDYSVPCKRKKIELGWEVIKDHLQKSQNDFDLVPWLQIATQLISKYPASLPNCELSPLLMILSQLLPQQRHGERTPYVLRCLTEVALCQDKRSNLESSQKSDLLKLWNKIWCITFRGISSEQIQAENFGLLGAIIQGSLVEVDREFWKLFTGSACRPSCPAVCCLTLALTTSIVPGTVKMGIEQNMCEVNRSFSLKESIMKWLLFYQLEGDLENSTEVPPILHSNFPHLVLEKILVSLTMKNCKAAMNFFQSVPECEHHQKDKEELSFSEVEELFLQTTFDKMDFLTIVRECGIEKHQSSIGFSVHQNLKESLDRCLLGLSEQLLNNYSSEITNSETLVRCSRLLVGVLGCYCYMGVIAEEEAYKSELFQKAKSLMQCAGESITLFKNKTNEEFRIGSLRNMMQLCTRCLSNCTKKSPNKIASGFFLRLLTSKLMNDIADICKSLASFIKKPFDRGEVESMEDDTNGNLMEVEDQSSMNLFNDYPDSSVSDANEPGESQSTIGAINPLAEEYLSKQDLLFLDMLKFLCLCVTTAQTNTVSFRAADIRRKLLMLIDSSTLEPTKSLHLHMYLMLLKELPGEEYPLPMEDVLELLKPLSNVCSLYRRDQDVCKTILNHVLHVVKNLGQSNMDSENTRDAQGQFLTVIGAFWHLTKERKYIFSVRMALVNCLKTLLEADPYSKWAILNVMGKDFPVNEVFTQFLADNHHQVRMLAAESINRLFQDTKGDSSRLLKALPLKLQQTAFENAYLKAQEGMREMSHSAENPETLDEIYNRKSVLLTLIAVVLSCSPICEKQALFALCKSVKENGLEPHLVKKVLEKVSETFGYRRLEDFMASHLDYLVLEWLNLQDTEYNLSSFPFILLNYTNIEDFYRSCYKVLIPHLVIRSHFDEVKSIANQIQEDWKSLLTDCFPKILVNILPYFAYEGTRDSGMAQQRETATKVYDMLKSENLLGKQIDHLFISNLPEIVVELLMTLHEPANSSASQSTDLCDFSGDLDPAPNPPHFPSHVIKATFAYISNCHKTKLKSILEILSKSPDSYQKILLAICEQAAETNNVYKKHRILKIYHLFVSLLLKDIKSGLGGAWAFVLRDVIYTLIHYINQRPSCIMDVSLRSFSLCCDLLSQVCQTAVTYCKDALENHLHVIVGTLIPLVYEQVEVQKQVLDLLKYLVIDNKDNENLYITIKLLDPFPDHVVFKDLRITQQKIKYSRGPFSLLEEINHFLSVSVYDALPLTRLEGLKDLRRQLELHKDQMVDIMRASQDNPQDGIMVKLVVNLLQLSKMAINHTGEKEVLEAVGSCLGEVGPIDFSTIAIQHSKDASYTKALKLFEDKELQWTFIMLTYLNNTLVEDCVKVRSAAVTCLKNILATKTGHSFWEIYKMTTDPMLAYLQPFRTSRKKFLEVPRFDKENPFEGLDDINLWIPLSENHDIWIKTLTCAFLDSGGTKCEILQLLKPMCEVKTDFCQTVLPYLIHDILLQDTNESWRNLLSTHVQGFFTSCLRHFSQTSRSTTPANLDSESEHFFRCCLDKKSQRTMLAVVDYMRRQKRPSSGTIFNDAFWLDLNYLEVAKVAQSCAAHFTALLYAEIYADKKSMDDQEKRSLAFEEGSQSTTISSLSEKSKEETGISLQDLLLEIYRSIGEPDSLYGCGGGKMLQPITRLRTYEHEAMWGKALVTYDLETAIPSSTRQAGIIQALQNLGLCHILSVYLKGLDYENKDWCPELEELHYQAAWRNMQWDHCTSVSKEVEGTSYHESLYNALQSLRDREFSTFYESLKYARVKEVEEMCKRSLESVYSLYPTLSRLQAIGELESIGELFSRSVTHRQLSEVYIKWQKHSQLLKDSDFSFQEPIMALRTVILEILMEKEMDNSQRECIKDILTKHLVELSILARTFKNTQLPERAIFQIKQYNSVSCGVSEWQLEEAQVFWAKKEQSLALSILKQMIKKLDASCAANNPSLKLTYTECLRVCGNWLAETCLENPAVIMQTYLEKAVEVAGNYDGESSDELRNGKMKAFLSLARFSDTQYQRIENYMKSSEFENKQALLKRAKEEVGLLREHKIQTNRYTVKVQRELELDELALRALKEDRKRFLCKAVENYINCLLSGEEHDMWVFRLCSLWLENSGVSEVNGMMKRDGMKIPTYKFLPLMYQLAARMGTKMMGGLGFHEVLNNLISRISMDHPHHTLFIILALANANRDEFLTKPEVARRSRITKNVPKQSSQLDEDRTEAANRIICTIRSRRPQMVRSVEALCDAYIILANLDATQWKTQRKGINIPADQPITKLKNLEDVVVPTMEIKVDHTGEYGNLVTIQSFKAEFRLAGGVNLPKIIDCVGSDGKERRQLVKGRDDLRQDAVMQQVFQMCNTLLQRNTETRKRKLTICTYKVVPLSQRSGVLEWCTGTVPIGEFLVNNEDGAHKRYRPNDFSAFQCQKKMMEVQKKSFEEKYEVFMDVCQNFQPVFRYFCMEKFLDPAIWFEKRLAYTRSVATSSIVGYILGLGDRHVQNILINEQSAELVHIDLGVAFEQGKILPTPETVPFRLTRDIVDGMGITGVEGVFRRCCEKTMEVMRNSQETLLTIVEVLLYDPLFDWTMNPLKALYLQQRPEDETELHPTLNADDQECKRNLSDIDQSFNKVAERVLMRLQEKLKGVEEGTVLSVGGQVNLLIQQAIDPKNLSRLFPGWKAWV

Row | SMILES | inhibition at 1 µM (ATM enzyme; C 1 μm) | inhibition at 10 µM (ATM enzyme; C 10 μm) | IC50 [1, 3] | IC50 [2, 4] | inhibition at 0.1 µM (ATM enzyme) | IC50 ([1]; Homo sapiens, SW-620, 120 h) | IC50 [2, 5] | other results
1 | CN(C)CCCOc1ccc(-c2ccc3ncc4c(c3c2)n(C2CCOCC2)c(=O)n4C)cn1 [AZD0156, reference compound] |  |  |  |  |  |  |  | Inh (%) ATM kinase inhibition rate (ATM enzyme; C 1 μm): 90%; Inh (%) ATM kinase inhibition rate (ATM enzyme; C 10 μm): 95%; Inh (%) ATM kinase inhibition rate (ATM enzyme; C 100 μm): 100%; IC50 ([1]; SW620 cells, medium containing 205 nM CPT-11, 5 days, MTT): 9.77 nM; IC50 ([2]; MDA-MB-468 cells, 7 days, MTT): 9.87 nM
2 | CN(C)CCCOc1ccc(-c2ccc3ncn4[nH]c(=O)c(C5CCOCC5)c4c3c2)cn1 [Example 1, 9-(6-(3-(dimethylamino)propoxy)pyridin-3-yl)-1-(tetrahydro-2H-pyran-4-yl)pyrazolo[1,5-c]quinazolin-2(3H)-one] | 0% | 23% | > 1000 nM | 231 nM |  |  |  | inhibition at 100 µM (ATM enzyme; C 100 μm): 69%
3 | CN(C)CCCOc1ccc(-c2ccc3ncn4c(c(C5CCOCC5)c(=O)n4C)c3c2)cn1 [Example 2, 9-(6-(3-(dimethylamino)propoxy)pyridin-3-yl)-3-methyl-1-(tetrahydro-2H-pyran-4-yl)pyrazolo[1,5-c]quinazolin-2(3H)-one] | 87% | 96% | 9.8 nM | 9.5 nM |  |  |  | inhibition at 100 µM (ATM enzyme; C 100 μm): 100%
4 | Cn1c(=O)c(C2CCOCC2)c2c3cc(-c4ccc(OCCCN5CCCCC5)nc4)ccc3ncn21 [Example 3, 9-(6-(3-(piperidin-1-yl)propoxy)pyridin-3-yl)-3-methyl-1-(tetrahydro-2H-pyran-4-yl)pyrazolo[1,5-c]quinazolin-2(3H)-one] | 93% | 98% | 6.22 nM | 6 nM | 66% |  |  | 
5 | CN(C)CCCOc1ccc(-c2ccc3ncn4c(c(C5CCOCC5)c(=O)n4C)c3c2)cc1C(F)(F)F [Example 5, 9-(4-(3-(dimethylamino)propoxy)-3-(trifluoromethyl)phenyl)-3-methyl-1-(tetrahydro-2H-pyran-4-yl)pyrazolo[1,5-c]quinazolin-2(3H)-one] | 93% | 100% | 1.52 nM | 2.38 nM | 61% |  |  | 
6 | CN(C)C1CCN(c2ccc(-c3ccc4ncn5c(c(C6CCOCC6)c(=O)n5C)c4c3)cc2F)CC1 [Example 6, 9-(4-(4-(dimethylamino)piperidin-1-yl)-3-fluorophenyl)-3-methyl-1-(tetrahydro-2H-pyran-4-yl)pyrazolo[1,5-c]quinazolin-2(3H)-one] | 94% | 98% | 2.69 nM | 2.71 nM | 57% |  |  | 
7 | CN(C)C1CCN(c2ccc(-c3ccc4ncn5c(c(C6CCOCC6)c(=O)n5C)c4c3)cc2Cl)CC1 [Example 7, 9-(3-chloro-4-(4-(dimethylamino)piperidin-1-yl)phenyl)-3-methyl-1-(tetrahydro-2H-pyran-4-yl)pyrazolo[1,5-c]quinazolin-2(3H)-one] | 91% | 96% | 3.16 nM | 3.79 nM | 61% |  |  | 
8 | CN(C)C1CCN(c2ccc(-c3ccc4ncn5c(c(C6CCOCC6)c(=O)n5C)c4c3)cc2C(F)(F)F)CC1 [Example 8, 9-(4-(4-(dimethylamino)piperidin-1-yl)-3-(trifluoromethyl)phenyl)-3-methyl-1-(tetrahydro-2H-pyran-4-yl)pyrazolo[1,5-c]quinazolin-2(3H)-one] | 99% | 100% | 2.1 nM | 2.65 nM | 86% |  |  | 
9 | CNC1CCN(c2ccc(-c3ccc4ncn5c(c(C6CCOCC6)c(=O)n5C)c4c3)cc2C(F)(F)F)CC1 [Example 10, 9-(4-(4-(methylamino)piperidin-1-yl)-3-(trifluoromethyl)phenyl)-3-methyl-1-(tetrahydro-2H-pyran-4-yl)pyrazolo[1,5-c]quinazolin-2(3H)-one] | 95% | 100% | 1.46 nM | 2.27 nM | 87% |  |  | 
10 | CCNC1CCN(c2ccc(-c3ccc4ncn5c(c(C6CCOCC6)c(=O)n5C)c4c3)cc2C(F)(F)F)CC1 [Example 11, 9-(4-(4-(ethylamino)piperidin-1-yl)-3-(trifluoromethyl)phenyl)-3-methyl-1-(tetrahydro-2H-pyran-4-yl)pyrazolo[1,5-c]quinazolin-2(3H)-one] | 95% | 100% | 4.82 nM | 3.55 nM | 66% |  |  | 
11 | CC(C)c1c(=O)n(C)n2cnc3ccc(-c4ccc(OCCCN(C)C)nc4)cc3c12 [Example 19, 9-(6-(3-(dimethylamino)propoxy)pyridin-3-yl)-1-isopropyl-3-methylpyrazolo[1,5-c]quinazolin-2(3H)-one] |  |  |  |  |  | 5.67 nM | 5.55 nM | 
12 | CC(C)c1c(=O)n(C)n2cnc3ccc(-c4ccc(OCCCN5CCCCC5)nc4)cc3c12 [Example 20, 9-(6-(3-(piperidin-1-yl)propoxy)pyridin-3-yl)-1-isopropyl-3-methyl-pyrazolo[1,5-c]quinazolin-2(3H)-one] |  |  |  |  |  | 3.48 nM | 2.21 nM | 
13 | CC(C)c1c(=O)n(C)n2cnc3ccc(-c4ccc(N5CCC(N(C)C)CC5)c(F)c4)cc3c12 [Example 21, 9-(4-(4-(dimethylamino)piperidin-1-yl)-3-fluorophenyl)-1-isopropyl-3-methylpyrazolo[1,5-c]quinazolin-2(3H)-one] |  |  |  |  |  | 10.5 nM | 7.22 nM | 
14 | CC(C)c1c(=O)n(C)n2cnc3ccc(-c4ccc(N5CCC(N(C)C)CC5)c(Cl)c4)cc3c12 [Example 22, 9-(3-chloro-4-(4-(dimethylamino)piperidin-1-yl)phenyl)-1-isopropyl-3-methylpyrazolo[1,5-c]quinazolin-2(3H)-one] |  |  |  |  |  | 26.1 nM | 22.9 nM | 
15 | CC(C)c1c(=O)n(C)n2cnc3ccc(-c4ccc(N5CCC(N(C)C)CC5)c(C(F)(F)F)c4)cc3c12 [Example 23, 9-(4-(4-(dimethylamino)piperidin-1-yl)-3-(trifluoromethyl)phenyl)-1-isopropyl-3-methylpyrazolo[1,5-c]quinazolin-2(3H)-one] |  |  |  |  |  | 8.49 nM | 6.76 nM | 
16 | CC(C)c1c(=O)n(C)n2cnc3ccc(-c4ccc(OCCCN(C)C)c(F)c4)cc3c12 [Example 24, 9-(4-(3-(dimethylamino)propoxy)-3-fluorophenyl)-1-isopropyl-3-methylpyrazolo[1,5-c]quinazolin-2(3H)-one] |  |  |  |  |  | 47.6 nM | 43.8 nM | 
17 | CC(C)c1c(=O)n(C)n2cnc3ccc(-c4ccc(OCCCN(C)C)c(C(F)(F)F)c4)cc3c12 [Example 25, 9-(4-(3-(dimethylamino)propoxy)-3-(trifluoromethyl)phenyl)-1-isopropyl-3-methylpyrazolo[1,5-c]quinazolin-2(3H)-one] |  |  |  |  |  | 13.4 nM | 13.5 nM | 
18 | CCn1c(=O)c(C2CCOCC2)c2c3cc(-c4ccc(OCCCN(C)C)nc4)ccc3ncn21 [Example 26, 9-(6-(3-(dimethylamino)propoxy)pyridin-3-yl)-3-ethyl-1-(tetrahydro-2H-pyran-4-yl)pyrazolo[1,5-c]quinazolin-2(3H)-one] | 66.5% |  | 142 nM | 123 nM |  |  |  | 
